According to ChEMBL document CHEMBL1201862, “PubChem BioAssay data set” (2004):
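96-well plates; 48 h exposure; 5 concentrations. Endpoints by linear interpolation between flanking doses. Not reached: highest tested concentration assigned. GI50 marks 50% less growth.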 The source made the active and inactive calls. No stated cut-off is given here; in the data, active = GI50 up to about 1.1 µM and inactive = higher.

Columns and labels:
Test in all cases: NCI-60 cell line screen, 48 h
NCI/ADR-RES = tested on: NCI/ADR-RES
SW-620 = tested on: SW-620
SK-MEL-28 = tested on: SK-MEL-28
A549 = tested on: A549
SNB-19 = tested on: SNB-19
SNB-75 = tested on: SNB-75
T47D = tested on: T47D
PC-3 = tested on: PC-3
OVCAR-4 = tested on: OVCAR-4
UACC-62 = tested on: UACC-62
NCI-H460 = tested on: NCI-H460
IGROV-1 = tested on: IGROV-1
SK-MEL-5 = tested on: SK-MEL-5
MDA-MB-231 = tested on: MDA-MB-231
MOLT-4 = tested on: MOLT-4
SF-268 = tested on: SF-268
DU-145 = tested on: DU-145
SR = tested on: SR
CAKI-1 = tested on: CAKI-1
CCRF-CEM = tested on: CCRF-CEM

Measured: GI50

COc1cccc(Nc2nc(-c3cccs3)nc3cc(OC)c(OC)cc23)c1
inactive: NCI/ADR-RES 24.3 µM | SW-620 29 µM | SK-MEL-28 31.5 µM | A549 29 µM | SNB-19 28.4 µM | SNB-75 32.8 µM | T47D 42.8 µM | PC-3 27.9 µM | OVCAR-4 41.3 µM | UACC-62 19.1 µM | NCI-H460 28.8 µM | IGROV-1 21.6 µM | SK-MEL-5 25.4 µM | MDA-MB-231 23 µM | MOLT-4 53.6 µM | SF-268 40.9 µM | DU-145 55.6 µM | SR 11 µM | CAKI-1 29 µM

COCc1cc2c(cc1/C=C/[N+](=O)[O-])OCO2
inactive: NCI/ADR-RES 25.2 µM | SW-620 17.7 µM | SK-MEL-28 11 µM | A549 17.1 µM | SNB-75 17.9 µM | T47D 21.1 µM | PC-3 12.1 µM | UACC-62 17.9 µM | NCI-H460 17.7 µM | CCRF-CEM 1.62 µM | IGROV-1 22.8 µM | SK-MEL-5 19.4 µM | MDA-MB-231 20.4 µM | MOLT-4 > 100 µM | SF-268 20.7 µM | DU-145 19.4 µM | SR 53.3 µM | CAKI-1 19.6 µM

CSc1ccn(C2CC(F)C(CO)O2)c(=O)n1 (configuration not stated)
inactive: NCI/ADR-RES > 100 µM | SW-620 > 100 µM | A549 > 100 µM | SNB-19 > 100 µM | SNB-75 > 100 µM | T47D > 100 µM | PC-3 > 100 µM | OVCAR-4 > 100 µM | UACC-62 > 100 µM | NCI-H460 > 100 µM | CCRF-CEM > 100 µM | IGROV-1 > 100 µM | SK-MEL-5 > 100 µM | MDA-MB-231 > 100 µM | MOLT-4 > 100 µM | SF-268 > 100 µM | DU-145 > 100 µM | SR > 100 µM | CAKI-1 > 100 µM

O=C1OC(C2(O)OC(=O)c3ccccc32)c2ccccc21 (configuration not stated)
inactive: NCI/ADR-RES > 100 µM | SW-620 > 100 µM | SK-MEL-28 > 100 µM | A549 > 100 µM | SNB-19 > 100 µM | SNB-75 > 100 µM | T47D > 100 µM | PC-3 > 100 µM | OVCAR-4 > 100 µM | UACC-62 > 100 µM | NCI-H460 > 100 µM | IGROV-1 > 100 µM | SK-MEL-5 > 100 µM | MDA-MB-231 > 100 µM | MOLT-4 > 100 µM | SF-268 > 100 µM | DU-145 > 100 µM | SR > 100 µM | CAKI-1 > 100 µM

Cc1cc(C23OC4COC(C)(C)OC4C2OC(C)(C)O3)nc2ccccc12 (configuration not stated)
inactive: NCI/ADR-RES > 100 µM | SW-620 > 100 µM | SK-MEL-28 > 100 µM | A549 > 100 µM | SNB-19 > 100 µM | SNB-75 > 100 µM | T47D > 100 µM | PC-3 78.2 µM | OVCAR-4 > 100 µM | UACC-62 > 100 µM | NCI-H460 > 100 µM | CCRF-CEM 32.1 µM | IGROV-1 31.3 µM | SK-MEL-5 > 100 µM | MDA-MB-231 > 100 µM | MOLT-4 25.5 µM | SF-268 > 100 µM | DU-145 > 100 µM | SR 72.8 µM

Cn1c2ccccc2c(=O)c2cccc(C(=O)NC(CCC(N)=O)C(=O)O)c21 (configuration not stated)
inactive: NCI/ADR-RES 60.3 µM | SW-620 > 100 µM | SK-MEL-28 > 100 µM | A549 > 100 µM | SNB-19 > 100 µM | SNB-75 > 100 µM | T47D > 100 µM | PC-3 > 100 µM | OVCAR-4 > 100 µM | UACC-62 > 100 µM | NCI-H460 > 100 µM | IGROV-1 > 100 µM | SK-MEL-5 > 100 µM | MDA-MB-231 > 100 µM | MOLT-4 > 100 µM | SF-268 > 100 µM | DU-145 > 100 µM | SR 62.1 µM | CAKI-1 > 100 µM

CCN1C(Cl)=NS(=O)(=O)c2ccccc21
inactive: NCI/ADR-RES 26.5 µM | SW-620 28.1 µM | SK-MEL-28 74.8 µM | A549 > 100 µM | SNB-19 35.5 µM | T47D 30 µM | PC-3 50 µM | OVCAR-4 19.4 µM | UACC-62 9.06 µM | NCI-H460 22.8 µM | CCRF-CEM 3.9 µM | IGROV-1 23.1 µM | SK-MEL-5 13.6 µM | MDA-MB-231 23 µM | MOLT-4 10.2 µM | SF-268 36.6 µM | DU-145 36.7 µM | SR 34.1 µM | CAKI-1 1.93 µM
